Test results: PubChem BioAssay AID651894 (Broad Institute, 2012)

Tested on: T. b. rhodesiense STIB900 bloodstream, Alamar blue, 72 h
Assay: T. b. rhodesiense proliferation inhibition, dose response, STIB900 strain, plate reader, dry powder (AID 651894)

C[C@@H]1CN([C@@H](C)CO)C(=O)c2cccc(NC(=O)c3ccncc3)c2O[C@H]1CN(C)Cc1ccc(Oc2ccccc2)cc1
IC50: 170 nM
